Data reported in ChEMBL document CHEMBL1201862, “PubChem BioAssay data set” (2004).
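Values below derive from 48-hour exposures of cells grown in 96-well plates, with endpoints linearly interpolated between the two concentrations bracketing the appropriate inhibition level. The concentration for 50% growth inhibition is given as GI50.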 Activity calls are given as the source filed them. Cut-off read from the data, not from the text of the source: active = GI50 up to about 1.1 µM and inactive = higher.

What was measured:
Experiment in all cases: NCI tumour cell line growth inhibition, 48 h
LXFL 529 = tested on: LXFL 529
UO-31 = tested on: UO-31
SK-MEL-28 = tested on: SK-MEL-28
SR = tested on: SR
Malme-3M = tested on: Malme-3M
NCI-H23 = tested on: NCI-H23
HT-29 = tested on: HT-29
SK-OV-3 = tested on: SK-OV-3
HCT-15 = tested on: HCT-15
SF-295 = tested on: SF-295
A549 = tested on: A549
HCC 2998 = tested on: HCC 2998
SNB-78 = tested on: SNB-78
KM-20L2 = tested on: KM-20L2
SN12C = tested on: SN12C
MOLT-4 = tested on: MOLT-4
XF498 = tested on: XF498
KM12 = tested on: KM12
SK-MEL-2 = tested on: SK-MEL-2
CCRF-CEM = tested on: CCRF-CEM
A498 = tested on: A498
EKVX = tested on: EKVX
TK-10 = tested on: TK-10
UACC-257 = tested on: UACC-257
OVCAR-8 = tested on: OVCAR-8
OVCAR-3 = tested on: OVCAR-3
HOP-18 = tested on: HOP-18
SK-MEL-5 = tested on: SK-MEL-5
RPMI-8226 = tested on: RPMI-8226
U-251 = tested on: U-251
OVCAR-5 = tested on: OVCAR-5
UACC-62 = tested on: UACC-62
NCI-H522 = tested on: NCI-H522
M14 = tested on: M14
786-0 = tested on: 786-0
DLD-1 = tested on: DLD-1
SF-539 = tested on: SF-539
NCI-H460 = tested on: NCI-H460
COLO 205 = tested on: COLO 205
SNB-75 = tested on: SNB-75
IGROV-1 = tested on: IGROV-1
HOP-62 = tested on: HOP-62
SNB-19 = tested on: SNB-19
DMS-114 = tested on: DMS-114
HL-60 = tested on: HL-60
NCI-H226 = tested on: NCI-H226
RXF 393 = tested on: RXF 393
DMS-273 = tested on: DMS-273
ACHN = tested on: ACHN
LOX IMVI = tested on: LOX IMVI
HCT-116 = tested on: HCT-116
SW-620 = tested on: SW-620
M19-MEL = tested on: M19-MEL
K562 = tested on: K562
CAKI-1 = tested on: CAKI-1
OVCAR-4 = tested on: OVCAR-4
SF-268 = tested on: SF-268
HOP-92 = tested on: HOP-92

Structure (SMILES): IC[P+]1(c2ccccc2)CCCC1
- GI50 (LXFL 529): 29.6 µM (inactive)
- GI50 (UO-31): > 100 µM (inactive)
- GI50 (SK-MEL-28): 50 µM (inactive)
- GI50 (SR): 33.4 µM (inactive)
- GI50 (Malme-3M): 44.5 µM (inactive)
- GI50 (NCI-H23): 39.4 µM (inactive)
- GI50 (HT-29): 37.3 µM (inactive)
- GI50 (SK-OV-3): > 100 µM (inactive)
- GI50 (HCT-15): 4.15 µM
- GI50 (SF-295): 40.1 µM (inactive)
- GI50 (A549): 28.7 µM (inactive)
- GI50 (HCC 2998): > 100 µM (inactive)
- GI50 (SNB-78): > 100 µM (inactive)
- GI50 (KM-20L2): 26.2 µM (inactive)
- GI50 (SN12C): 14.3 µM (inactive)
- GI50 (MOLT-4): 72.9 µM (inactive)
- GI50 (XF498): < 0.01 µM (active)
- GI50 (KM12): 32.5 µM (inactive)
- GI50 (SK-MEL-2): > 100 µM (inactive)
- GI50 (CCRF-CEM): 54.2 µM (inactive)
- GI50 (A498): 23.8 µM (inactive)
- GI50 (EKVX): 16.7 µM (inactive)
- GI50 (TK-10): 47.3 µM (inactive)
- GI50 (UACC-257): 52.4 µM (inactive)
- GI50 (OVCAR-8): 32.4 µM (inactive)
- GI50 (OVCAR-3): 43 µM (inactive)
- GI50 (HOP-18): 58.7 µM (inactive)
- GI50 (SK-MEL-5): 19.1 µM (inactive)
- GI50 (RPMI-8226): 29.8 µM (inactive)
- GI50 (U-251): 12.8 µM (inactive)
- GI50 (OVCAR-5): > 100 µM (inactive)
- GI50 (UACC-62): > 100 µM (inactive)
- GI50 (NCI-H522): 8.36 µM (inactive)
- GI50 (M14): 46.5 µM (inactive)
- GI50 (786-0): > 100 µM (inactive)
- GI50 (DLD-1): 52.2 µM (inactive)
- GI50 (SF-539): 45.3 µM (inactive)
- GI50 (NCI-H460): 31.9 µM (inactive)
- GI50 (COLO 205): 14 µM (inactive)
- GI50 (SNB-75): 26.2 µM (inactive)
- GI50 (IGROV-1): > 100 µM (inactive)
- GI50 (HOP-62): 38.2 µM (inactive)
- GI50 (SNB-19): 59.6 µM (inactive)
- GI50 (DMS-114): 9.25 µM (inactive)
- GI50 (HL-60): 45.1 µM (inactive)
- GI50 (NCI-H226): 24.2 µM (inactive)
- GI50 (RXF 393): 76.7 µM (inactive)
- GI50 (DMS-273): 18.7 µM (inactive)
- GI50 (ACHN): 82.4 µM (inactive)
- GI50 (LOX IMVI): 26.7 µM (inactive)
- GI50 (HCT-116): 49.8 µM (inactive)
- GI50 (SW-620): > 100 µM (inactive)
- GI50 (M19-MEL): 21.3 µM (inactive)
- GI50 (K562): 35.9 µM (inactive)

Structure (SMILES): CN1C(=O)C(=CN(C)c2ccccc2)C(=O)N(C)C1=O
- GI50 (LXFL 529): > 100 µM (inactive)
- GI50 (UO-31): > 100 µM (inactive)
- GI50 (CAKI-1): 30.1 µM (inactive)
- GI50 (SK-MEL-28): > 100 µM (inactive)
- GI50 (SR): 37.2 µM (inactive)
- GI50 (Malme-3M): 36.9 µM (inactive)
- GI50 (HCT-15): > 100 µM
- GI50 (SF-295): > 100 µM (inactive)
- GI50 (A549): > 100 µM (inactive)
- GI50 (HCC 2998): > 100 µM (inactive)
- GI50 (SNB-78): > 100 µM (inactive)
- GI50 (KM-20L2): > 100 µM (inactive)
- GI50 (SN12C): > 100 µM (inactive)
- GI50 (MOLT-4): > 100 µM (inactive)
- GI50 (XF498): > 100 µM (inactive)
- GI50 (KM12): > 100 µM (inactive)
- GI50 (SK-MEL-2): > 100 µM (inactive)
- GI50 (CCRF-CEM): 40.4 µM (inactive)
- GI50 (A498): 95.7 µM (inactive)
- GI50 (EKVX): 65.8 µM (inactive)
- GI50 (TK-10): > 100 µM (inactive)
- GI50 (UACC-257): > 100 µM (inactive)
- GI50 (OVCAR-8): > 100 µM (inactive)
- GI50 (OVCAR-3): 90.4 µM (inactive)
- GI50 (HOP-18): 69.8 µM (inactive)
- GI50 (SK-MEL-5): > 100 µM (inactive)
- GI50 (RPMI-8226): > 100 µM (inactive)
- GI50 (U-251): > 100 µM (inactive)
- GI50 (OVCAR-5): > 100 µM (inactive)
- GI50 (UACC-62): 91.6 µM (inactive)
- GI50 (M14): 74.5 µM (inactive)
- GI50 (786-0): > 100 µM (inactive)
- GI50 (DLD-1): > 100 µM (inactive)
- GI50 (SF-539): > 100 µM (inactive)
- GI50 (NCI-H460): > 100 µM (inactive)
- GI50 (OVCAR-4): > 100 µM (inactive)
- GI50 (SNB-75): 92.7 µM (inactive)
- GI50 (IGROV-1): 56.5 µM (inactive)
- GI50 (SNB-19): > 100 µM (inactive)
- GI50 (DMS-114): 57.7 µM (inactive)
- GI50 (HL-60): 51.1 µM (inactive)
- GI50 (NCI-H226): 63.2 µM (inactive)
- GI50 (RXF 393): 69 µM (inactive)
- GI50 (DMS-273): > 100 µM (inactive)
- GI50 (ACHN): > 100 µM (inactive)
- GI50 (LOX IMVI): > 100 µM (inactive)
- GI50 (HCT-116): > 100 µM (inactive)
- GI50 (SW-620): 80.5 µM (inactive)
- GI50 (M19-MEL): 49.2 µM (inactive)
- GI50 (K562): > 100 µM (inactive)

Structure (SMILES): Fc1cccc(/C=N/C23CC4CC(CC(C4)C2)C3)c1
- GI50 (LXFL 529): > 100 µM (inactive)
- GI50 (UO-31): > 100 µM (inactive)
- GI50 (CAKI-1): > 100 µM (inactive)
- GI50 (SK-MEL-28): > 100 µM (inactive)
- GI50 (Malme-3M): > 100 µM (inactive)
- GI50 (NCI-H23): > 100 µM (inactive)
- GI50 (HT-29): > 100 µM (inactive)
- GI50 (SK-OV-3): > 100 µM (inactive)
- GI50 (HCT-15): > 100 µM
- GI50 (SF-295): > 100 µM (inactive)
- GI50 (HCC 2998): > 100 µM (inactive)
- GI50 (SNB-78): > 100 µM (inactive)
- GI50 (KM-20L2): > 100 µM (inactive)
- GI50 (SN12C): > 100 µM (inactive)
- GI50 (MOLT-4): > 100 µM (inactive)
- GI50 (SF-268): > 100 µM (inactive)
- GI50 (XF498): > 100 µM (inactive)
- GI50 (KM12): > 100 µM (inactive)
- GI50 (SK-MEL-2): > 100 µM (inactive)
- GI50 (CCRF-CEM): > 100 µM (inactive)
- GI50 (A498): > 100 µM (inactive)
- GI50 (EKVX): > 100 µM (inactive)
- GI50 (TK-10): > 100 µM (inactive)
- GI50 (UACC-257): > 100 µM (inactive)
- GI50 (OVCAR-8): > 100 µM (inactive)
- GI50 (OVCAR-3): > 100 µM (inactive)
- GI50 (HOP-18): > 100 µM (inactive)
- GI50 (RPMI-8226): > 100 µM (inactive)
- GI50 (U-251): > 100 µM (inactive)
- GI50 (OVCAR-5): > 100 µM (inactive)
- GI50 (UACC-62): > 100 µM (inactive)
- GI50 (NCI-H522): > 100 µM (inactive)
- GI50 (M14): > 100 µM (inactive)
- GI50 (786-0): > 100 µM (inactive)
- GI50 (DLD-1): > 100 µM (inactive)
- GI50 (SF-539): > 100 µM (inactive)
- GI50 (HOP-92): > 100 µM (inactive)
- GI50 (NCI-H460): > 100 µM (inactive)
- GI50 (COLO 205): > 100 µM (inactive)
- GI50 (OVCAR-4): > 100 µM (inactive)
- GI50 (SNB-75): > 100 µM (inactive)
- GI50 (IGROV-1): > 100 µM (inactive)
- GI50 (HOP-62): > 100 µM (inactive)
- GI50 (SNB-19): > 100 µM (inactive)
- GI50 (DMS-114): > 100 µM (inactive)
- GI50 (HL-60): > 100 µM (inactive)
- GI50 (NCI-H226): > 100 µM (inactive)
- GI50 (RXF 393): > 100 µM (inactive)
- GI50 (DMS-273): > 100 µM (inactive)
- GI50 (ACHN): > 100 µM (inactive)
- GI50 (LOX IMVI): > 100 µM (inactive)
- GI50 (HCT-116): > 100 µM (inactive)
- GI50 (M19-MEL): > 100 µM (inactive)
- GI50 (K562): > 100 µM (inactive)
